Measurements as given in US10098852B2 (LAUNX BIOMEDICAL CO., LTD., priority 2014, dated 2018).
Where “and” joins values, the source holds several entries; their conditions need not be identical. Equal entries are not always repeated. Where two headings read alike, the source gives them in different places.

Legend:
[1] = tested on: TSGH (bladder cancer cell line); assay: Cell viability analysis (WST-1), bladder cancer cell line TSGH; format: cell-based
Method: (§1) The cell numbers were counted and reseed as 2×10^6 in cell culture plate/flask. Then, the culture medium was added to a volume of 10 ml, and the cells were cultured for 2-3 days. Then, the cells were suspended for loading into 96-well plates. The cell number was 3000/well and the volume of the culture medium was 100 μl each well.
(§2) Removing the original culture medium from 96-well plate. Then add 100 μl of commercially drug at a concentration of 10 μM per well. After 72 hours, add the diluted WST-1 reagent to the well with 100 μl/well, and the diluted WST-1 reagent was acquired from the dilution of 9:1 medium and WST-1 stock reagent. Finally, the total volume of each well was 200 μl/well. Culture the 96-well plate at 37° C. for 30 to 90 minutes. Detecting and calculate the survival rate of each cancer cells with an ELISA reader at OD450 nm.

[2] = tested on: PC-3 (Prostate adenocarcinoma); assay: Cell viability analysis (WST-1), prostate cancer cell line PC-3; format: cell-based; settings: PC-3, 10 μM
Method: as §1, §2

[3] = tested on: NIH-OVCAR-3 (ovarian cancer cell line); assay: Cell viability analysis (WST-1), ovarian cancer cell line NIH-OVCAR-3; format: cell-based; settings: Homo sapiens
Method: as §1, §2

[4] = tested on: MKN-45 (Gastric Adenocarcinoma); assay: Cell viability analysis (WST-1), gastric cancer cell line MKN-45; format: cell-based; settings: Homo sapiens
[5] = tested on: Hep3B (hepatocellular carcinoma); assay: Cell viability analysis (WST-1), hepatic cancer cell line Hep3B; format: cell-based; settings: Homo sapiens
[6] = tested on: HCT116-wt (colorectal carcinoma); assay: Cell viability analysis (WST-1), colorectal cancer cell line HCT116-wt; format: cell-based
Method: as §1, §2

[7] = Cell viability analysis (WST-1), normal kidney cell line HEK293; format: cell-based; settings: human, HEK293 normal kidney cells
Method: as §1, §2

cervical cancer cell = assay: Summary of the effect on cervical cancer cell (HeLa, C-33A); format: cell-based; settings: cervical cancer cell (mean of HeLa and C-33A averages), 72 hours, read-out: Inhibitory effect
Method: as §2

hepatic cancer cell = assay: Summary of the effect on hepatic cancer cell (HepG2, Hep3B); format: cell-based; settings: hepatic cancer cell (mean of HepG2 and Hep3B averages), 72 hours, read-out: Inhibitory effect
Method: as §2

[8] = tested on: gastric cancer cells (AGS) subcutaneous tumor; assay: Animal model test of gastric cancer: tumor size; format: in vivo, mice (BALB/cAnN.Cg-Foxn1nu/CrlNarl); settings: for Tumor volume growth, average / tumor volume, average: group average; for Tumor volume growth / tumor longest length / tumor volume / tumor width: individual mice A, B, C
Method: In this invention, the female mice were (BALB/cAnN.Cg-Foxn1^nu/CrlNarl) purchased from National Laboratory Animal Center (Taiwan)). The weight of the mice were 21±1 g. These mice were subcutaneously injected with gastric cancer cells (AGS) and then put these mice into different cages at random. The drug test experiment was divided into three groups, include “control group”, “low dose group (100 mg/kg/day)”, and “high dose group (200 mg/kg/day)”. These mice were then injected test drug intraperitoneally once daily […]. The tumor sizes and body weight were measured twice a week. The tumor sizes were measured and calculated by formula: (L×W^2)/2. L represents the tumor longest length. W represents the tumor shortest diameter.

[9] = 72 h, average of 4 tests, read-out: inhibition effect (survival rate of cells), average
[10] = high dose (200 mg/kg/day) i.p. once daily, Fifth measurement
[11] = high dose (200 mg/kg/day) i.p. once daily, First measurement
[12] = high dose (200 mg/kg/day) i.p. once daily, First measurement, 200 mg/kg/day
[13] = high dose (200 mg/kg/day) i.p. once daily, Fourth measurement
[14] = high dose (200 mg/kg/day) i.p. once daily, Second measurement
[15] = high dose (200 mg/kg/day) i.p. once daily, Second measurement, 200 mg/kg/day
[16] = high dose (200 mg/kg/day) i.p. once daily, Third measurement
[17] = high dose (200 mg/kg/day) i.p. once daily, Third measurement, 200 mg/kg/day
[18] = low dose (100 mg/kg/day) i.p. once daily, Fifth measurement
[19] = low dose (100 mg/kg/day) i.p. once daily, Fifth measurement, 100 mg/kg/day
[20] = low dose (100 mg/kg/day) i.p. once daily, First measurement
[21] = low dose (100 mg/kg/day) i.p. once daily, First measurement, 100 mg/kg/day
[22] = low dose (100 mg/kg/day) i.p. once daily, Fourth measurement
[23] = low dose (100 mg/kg/day) i.p. once daily, Fourth measurement, 100 mg/kg/day
[24] = low dose (100 mg/kg/day) i.p. once daily, Second measurement
[25] = low dose (100 mg/kg/day) i.p. once daily, Second measurement, 100 mg/kg/day
[26] = low dose (100 mg/kg/day) i.p. once daily, Third measurement
[27] = low dose (100 mg/kg/day) i.p. once daily, Third measurement, 100 mg/kg/day

Oc1ccc(OCc2ccccc2)cc1 [Monobenzone]
viability at 10 µM [1, 9]: 84.6% | viability at 10 µM ([1]; 72 hours, test 0510-10 min, read-out: inhibition effect (survival rate of cells)): 90.2% | viability at 10 µM ([1]; 72 hours, test 0512-10 min, read-out: inhibition effect (survival rate of cells)): 92.8% | viability at 10 µM ([1]; 72 hours, test 0515-10 min, read-out: inhibition effect (survival rate of cells)): 83% | viability at 10 µM ([1]; 72 hours, test 0517-10 min, read-out: inhibition effect (survival rate of cells)): 72.5% | viability at 10 µM [2, 9]: 62.5% | viability at 10 µM ([2]; 72 hours, test PC-3-0524-10 min, read-out: inhibition effect (survival rate of cells)): 57% | viability at 10 µM ([2]; 72 hours, test PC-3-0526-10 min, read-out: inhibition effect (survival rate of cells)): 70.6% | viability at 10 µM ([2]; 72 hours, test PC-3-0529-10 min, read-out: inhibition effect (survival rate of cells)): 63.2% | viability at 10 µM ([2]; 72 hours, test PC-3-0531-10 min, read-out: inhibition effect (survival rate of cells)): 59% | viability at 10 µM ([3]; OVCAR-3, 72 h, NIH-OVCAR-3, 10 μM, average of 4 tests, read-out: inhibition effect (survival rate of cells), average): 91.5% | viability at 10 µM ([3]; OVCAR-3, NIH-OVCAR-3, 10 μM, 72 hours, test 7-3-30 min, read-out: inhibition effect (survival rate of cells)): 88.3% | viability at 10 µM ([3]; OVCAR-3, NIH-OVCAR-3, 10 μM, 72 hours, test 7-4-30 min, read-out: inhibition effect (survival rate of cells)): 96.6% | viability at 10 µM ([3]; OVCAR-3, NIH-OVCAR-3, 10 μM, 72 hours, test 7-7-30 min, read-out: inhibition effect (survival rate of cells)): 88.3% | viability at 10 µM ([3]; OVCAR-3, NIH-OVCAR-3, 10 μM, 72 hours, test −4-30 min, read-out: inhibition effect (survival rate of cells)): 92.7% | viability at 10 µM ([4]; MKN-45, 72 h, MKN-45, 10 μM, average of 4 tests, read-out: inhibition effect (survival rate of cells), average): 97.2% | viability at 10 µM ([4]; MKN-45, MKN-45, 10 μM, 72 hours, test 0510-10 min, read-out: inhibition effect (survival rate of cells)): 89.2% | viability at 10 µM ([4]; MKN-45, MKN-45, 10 μM, 72 hours, test 0512-10 min, read-out: inhibition effect (survival rate of cells)): 107% | viability at 10 µM ([4]; MKN-45, MKN-45, 10 μM, 72 hours, test 0517-10 min, read-out: inhibition effect (survival rate of cells)): 91.3% | viability at 10 µM [5, 9]: 106% | viability at 10 µM ([5]; 72 hours, test 0612-20 min, read-out: inhibition effect (survival rate of cells)): 111% | viability at 10 µM ([5]; 72 hours, test 0614-20 min, read-out: inhibition effect (survival rate of cells)): 116% | viability at 10 µM ([5]; 72 hours, test 0616-20 min, read-out: inhibition effect (survival rate of cells)): 96.8% | viability at 10 µM [6, 9]: 95% | viability at 10 µM ([6]; 72 hours, test 0602-30 min, read-out: inhibition effect (survival rate of cells)): 91.1% | viability at 10 µM ([6]; 72 hours, test 0605-10 min, read-out: inhibition effect (survival rate of cells)): 104% | viability at 10 µM ([6]; 72 hours, test 0607-10 min, read-out: inhibition effect (survival rate of cells)): 99.9% | viability at 10 µM ([6]; 72 hours, test 0609-10 min, read-out: inhibition effect (survival rate of cells)): 85.3% | viability at 72 h, 10 µM ([7]; average of 4 tests, read-out: inhibition effect (survival rate of cells), average): 93% | viability at 72 h, 10 µM ([7]; test 0602-30 min, read-out: inhibition effect (survival rate of cells)): 82.7% | viability at 72 h, 10 µM ([7]; test 0605-30 min, read-out: inhibition effect (survival rate of cells)): 99.4% | viability at 72 h, 10 µM ([7]; test 0607-30 min, read-out: inhibition effect (survival rate of cells)): 97.9% | viability at 72 h, 10 µM ([7]; test 0609-30 min, read-out: inhibition effect (survival rate of cells)): 91.8% | viability at 10 µM (cervical cancer cell): 71.2% | viability at 10 µM (hepatic cancer cell): 95.4% | inhibition effect on tumor cells (in words) ([8]; both low dose (100 mg/kg/day) and high dose (200 mg/kg/day), FIG. 2): significant inhibition effect on tumor cells | Tumor volume growth, average [8, 10]: 0 mm3 | tumor volume, average [8, 10]: 0 mm3 | Tumor volume growth [8, 10]: 0 mm3 | tumor longest length [8, 10]: 0 mm | tumor volume [8, 10]: 0 mm3 | tumor width [8, 10]: 0 mm | Tumor volume growth, average [8, 11]: 25.67 mm3 | tumor volume, average [8, 11]: 25.67 mm3 | Tumor volume growth [8, 12]: 18 mm3 and 27 mm3 and 32 mm3 | tumor longest length [8, 12]: 4 mm (2×) and 6 mm | tumor volume [8, 12]: 18 mm3 and 27 mm3 and 32 mm3 | tumor width [8, 12]: 3 mm (2×) and 4 mm | Tumor volume growth, average [8, 13]: −50 mm3 | tumor volume, average [8, 13]: 0 mm3 | tumor longest length [8, 13]: 0 mm | tumor volume [8, 13]: 0 mm3 | tumor width [8, 13]: 0 mm | Tumor volume growth ([8]; high dose (200 mg/kg/day) i.p. once daily, Fourth measurement, 200 mg/kg/day): −87.5 mm3 and −62.5 mm3 and 0 mm3 | Tumor volume growth, average [8, 14]: 57.67 mm3 | tumor volume, average [8, 14]: 83.33 mm3 | tumor width [8, 14]: 5 mm | Tumor volume growth [8, 15]: 69.5 mm3 and 48 mm3 and 55.5 mm3 | tumor longest length [8, 15]: 7 mm (2×) and 6 mm | tumor volume [8, 15]: 87.5 mm3 (2×) and 75 mm3 | Tumor volume growth, average [8, 16]: −33.3333 mm3 | tumor volume, average [8, 16]: 50 mm3 | Tumor volume growth [8, 17]: 0 mm3 and −12.5 mm3 and −87.5 mm3 | tumor longest length [8, 17]: 7 mm and 5 mm and 0 mm | tumor volume [8, 17]: 87.5 mm3 and 62.5 mm3 and 0 mm3 | tumor width [8, 17]: 5 mm (2×) and 0 mm | effect on tumor volume growth (in words) ([8]; high dose (200 mg/kg/day), FIG. 3): effectively slow down the tumor volume growth, and can also reduce the tumor volume | Tumor volume growth, average [8, 18]: 2.667 mm3 | tumor volume, average [8, 18]: 22 mm3 | Tumor volume growth [8, 19]: 0 mm3 (2×) and 8 mm3 | tumor longest length [8, 19]: 4 mm and 6 mm and 0 mm | tumor volume [8, 19]: 18 mm3 and 48 mm3 and 0 mm3 | tumor width [8, 19]: 3 mm and 4 mm and 0 mm | Tumor volume growth, average [8, 20]: 176.3333 mm3 | tumor volume, average [8, 20]: 176.3333 mm3 | Tumor volume growth [8, 21]: 256 mm3 and 147 mm3 and 126 mm3 | tumor longest length [8, 21]: 8 mm and 6 mm and 7 mm | tumor volume [8, 21]: 256 mm3 and 147 mm3 and 126 mm3 | tumor width [8, 21]: 8 mm and 7 mm and 6 mm | Tumor volume growth, average [8, 22]: −88 mm3 | tumor volume, average [8, 22]: 19.33 mm3 | Tumor volume growth [8, 23]: −108 mm3 and −68 mm3 and −88 mm3 | tumor longest length [8, 23]: 4 mm and 5 mm and 0 mm | tumor volume [8, 23]: 18 mm3 and 40 mm3 and 0 mm3 | tumor width [8, 23]: 3 mm and 4 mm and 0 mm | Tumor volume growth, average [8, 24]: −77.5 mm3 | tumor volume, average [8, 24]: 98.83 mm3 | Tumor volume growth [8, 25]: −130 mm3 and −39 mm3 and −63.5 mm3 | tumor longest length [8, 25]: 7 mm and 6 mm and 5 mm | tumor volume [8, 25]: 126 mm3 and 108 mm3 and 62.5 mm3 | tumor width [8, 25]: 6 mm (2×) and 5 mm | Tumor volume growth, average [8, 26]: 0 mm3 | tumor volume, average [8, 26]: 98.83 mm3 | Tumor volume growth [8, 26]: 0 mm3 | tumor longest length [8, 27]: 7 mm and 6 mm and 5 mm | tumor volume [8, 27]: 126 mm3 and 108 mm3 and 62.5 mm3 | tumor width [8, 27]: 6 mm (2×) and 5 mm
